According to patent US6960614B2, “Oxygenated esters of 4-lodo phenylamino benzhydroxamic acids” (Warner-Lambert Company, priority 2000, dated 2005):

Test system: MEK
Experiment: Cellular Assay for Measuring MEK Inhibition (inhibition of ERK phosphorylation in C26 cells, Western blot)
Format: cell-based, murine
Settings: for % Inhibition @ 0.1 μM / % Inhibition @ 1 μM / % Inhibition @ 10 μM: ERK phosphorylation in C26 cells; for IC50: inhibition of ERK phosphorylation in murine colon 26 (C26) carcinoma cells, determined graphically from dose response curve
Method: The evaluation of the compounds as MEK inhibitors was performed in an assay that measures their ability to inhibit phosphorylation of MAP kinase […]) in murine colon 26 (C26) carcinoma cells. Since ERK1 and ERK2 represent the only known substrates for MEK, measurement of inhibition of ERK phosphorylation in cells provides direct readout of cellular MEK inhibition by the compounds of the invention. Briefly, the assay involves treating exponentially growing C26 cells with varying concentrations of the test compound (or vehicle control) for […] at 37° C. Cells are then rinsed free of compound/vehicle and lysed in a solution containing 70 mM NaCl, 50 mM glycerol phosphate, 10 mM HEPES, pH 7.4, 1% Triton X-100, 1 mM Na3VO4, 100 μM PMSF, 10 μM leupeptin and 10 μM pepstatin. Supernatants are then subjected to gel electrophoresis and Western blotting using a primary antibody recognizing dually phosphorylated ERK1 and ERK2. To evaluate total MAPK levels, blots were subsequently ‘stripped’ and re-probed with a 1:1 mixture of polyclonal antibodies recognizing unphosphorylated ERK1 and ERK2.

| IC50 | SMILES | % Inhibition @ 0.1 μM | % Inhibition @ 1 μM | % Inhibition @ 10 μM |
| --- | --- | --- | --- | --- |
|  | CCC(O)CONC(=O)c1cc(Cl)c(F)c(F)c1Nc1ccc(I)cc1F (centres unmarked) [Example 114, 5-Chloro-3,4-difluoro-2-(2-fluoro-4-iodo-phenylamino)-N-(2-hydroxy-butoxy)-benzamide] | 90.5% | 97.3% |  |
|  | CCC(O)CONC(=O)c1cc(F)c(F)cc1Nc1ccc(I)cc1F (centres unmarked) [Example 115, 4,5-Difluoro-2-(2-fluoro-4-iodo-phenylamino)-N-(2-hydroxy-butoxy)-benzamide] | 94.8% | 98.5% |  |
|  | CCC(O)CONC(=O)c1cc(Cl)c(F)c(F)c1Nc1ccc(F)cc1F (centres unmarked) [Example 116, 5-Chloro-2-(2,4-difluoro-phenylamino)-3,4-difluoro-N-(2-hydroxy-butoxy)-benzamide] |  | 62.8% | 75.8% |
|  | CCC(O)CONC(=O)c1ccc(F)c(F)c1Nc1ccc(F)cc1F (centres unmarked) [Example 117, 2-(2,4-Difluoro-phenylamino)-3,4-difluoro-N-(2-hydroxy-butoxy)-benzamide] | 0% | 66.7% | 86.9% |
|  | CCC(O)CONC(=O)c1ccc(F)c(F)c1Nc1ccc(Br)cc1F (centres unmarked) [Example 118, 2-(4-Bromo-2-fluoro-phenylamino)-3,4-difluoro-N-(2-hydroxy-butoxy)-benzamide] | 74.6% | 95.6% |  |
|  | Cc1cc(I)ccc1Nc1c(C(=O)NOC(C)CO)cc(Cl)c(F)c1F (centres unmarked) [Example 119, 5-Chloro-3,4-difluoro-N-(2-hydroxy-1-methyl-ethoxy)-2-(4-iodo-2-methyl-phenylamino)-benzamide] | 87.4% | 97.9% |  |
| 0.014 µM | CC(CO)ONC(=O)c1ccc(F)c(F)c1Nc1ccc(I)cc1Cl (centres unmarked) [Example 120, 2-(2-Chloro-4-iodo-phenylamino)-3,4-difluoro-N-(2-hydroxy-1-methyl-ethoxy)-benzamide] |  |  |  |
|  | CC(CO)ONC(=O)c1cc(F)c(F)c(F)c1Nc1ccc(I)cc1Cl (centres unmarked) [Example 121, 2-(2-Chloro-4-iodo-phenylamino)-3,4,5-trifluoro-N-(2-hydroxy-1-methyl-ethoxy)-benzamide] | 46.9% | 85.5% |  |
|  | Cc1cc(I)ccc1Nc1c(C(=O)NOC(C)CO)cc(F)c(F)c1F (centres unmarked) [Example 122, 3,4,5-Trifluoro-N-(2-hydroxy-1-methyl-ethoxy)-2-(4-iodo-2-methyl-phenylamino)-benzamide] | 49.6% | 87.3% |  |
| 0.021 µM | CC(CO)ONC(=O)c1cc(Br)c(F)c(F)c1Nc1ccc(I)cc1Cl (centres unmarked) [Example 123, 5-Bromo-2-(2-chloro-4-iodo-phenylamino)-3,4-difluoro-N-(2-hydroxy-1-methyl-ethoxy)-benzamide] |  |  |  |
|  | Cc1cc(I)ccc1Nc1c(C(=O)NOC(C)CO)cc(Br)c(F)c1F (centres unmarked) [Example 124, 5-Bromo-3,4-difluoro-N-(2-hydroxy-1-methyl-ethoxy)-2-(4-iodo-2-methyl-phenylamino)-benzamide] | 78% | 96.9% |  |
|  | CC(CO)ONC(=O)c1ccc(F)c(F)c1Nc1ccc(Cl)cc1F (centres unmarked) [Example 125, 2-(4-Chloro-2-fluoro-phenylamino)-3,4-difluoro-N-(2-hydroxy-1-methyl-ethoxy)-benzamide] | 9.1% | 89% |  |
| 0.026 µM | Cc1cc(I)ccc1Nc1c(C(=O)NOC(C)CO)ccc(F)c1F (centres unmarked) [Example 126, 3,4-Difluoro-N-(2-hydroxy-1-methyl-ethoxy)-2-(4-iodo-2-methyl-phenylamino)-benzamide] |  |  |  |
| 0.025 µM | CC(CO)ONC(=O)c1cc(Cl)c(F)c(F)c1Nc1ccc(I)cc1Cl (centres unmarked) [Example 127, 5-Chloro-2-(2-chloro-4-iodo-phenylamino)-3,4-difluoro-N-(2-hydroxy-1-methyl-ethoxy)-benzamide] |  |  |  |
| 0.009 µM | CC(CO)ONC(=O)c1ccc(F)c(F)c1Nc1ccc(I)cc1F (centres unmarked) [Example 128, 3,4-Difluoro-2-(2-fluoro-4-iodo-phenylamino)-N-(2-hydroxy-1-methyl-ethoxy)-benzamide] |  |  |  |
